“Also recorded” adds a separate entry of the source.
Tests used:
[1] = tested on: acinar cells incubated with GTL; assay: GTL induced acinar injury (LDH leakage); assay type: cell-based; conditions: 10 micromolar
Description: (§1) These lipases form 15-30% of pancreatic lipases.

[2] = target: T1, recombinant human pancreatic lipase related protein 2 (hPLRP2) (Homo sapiens, UniProt P54317); assay: FFA generation by recombinant hPLRP2; assay type: biochemical; conditions: % FFA generation; read-out: IC50 against hPLRP2
T1 sequence (P54317 18-469): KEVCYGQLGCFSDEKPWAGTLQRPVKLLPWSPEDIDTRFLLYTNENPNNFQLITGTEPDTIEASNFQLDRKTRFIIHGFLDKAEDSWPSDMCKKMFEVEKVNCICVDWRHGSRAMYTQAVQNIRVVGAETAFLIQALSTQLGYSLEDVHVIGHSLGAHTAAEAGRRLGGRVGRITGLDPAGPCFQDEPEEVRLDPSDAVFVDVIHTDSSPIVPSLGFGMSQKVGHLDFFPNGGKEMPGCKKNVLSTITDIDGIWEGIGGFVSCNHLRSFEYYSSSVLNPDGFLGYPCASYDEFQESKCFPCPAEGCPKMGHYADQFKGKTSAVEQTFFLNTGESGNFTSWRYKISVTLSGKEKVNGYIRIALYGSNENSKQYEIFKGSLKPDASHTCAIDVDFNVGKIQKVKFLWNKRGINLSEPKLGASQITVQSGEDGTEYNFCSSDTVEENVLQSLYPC
Method: (§2) The efficacy of a selection of the prepared analogs was explored to determine their ability to inhibit free fatty acid (FFA) generation from recombinant human lipases while retaining stability. To test these features, the analogs were dissolved in ethanol (200 mM stock) and further diluted to a 600 micromolar (0.3% ethanol) working stock in PBS. The agents were incubated with the recombinant enzymes in serial ⅓ dilutions spanning a range of 200 to 0.3 micromolar for 30 minutes, and then added to the substrate 1 mM glyceryl trilinoleate (GTL) in PBS, pH 7.4 along with cofactor colipase (CLPS; 0.5 mcg/ml).
as §1

[3] = tested on: ob/ob mice with severe pancreatitis; assay: Caerulein-induced severe pancreatitis in obese ob/ob mice; conditions: 20 mg/kg single intraperitoneal dose
Method: Genetically obese male ob/ob mice (50-60 gm) were used and baseline tail vein blood draw was collected for serum lipase, triglycerides, and BUN (blood urea nitrogen). […] Severe pancreatitis was induced by implanting an alzet pump subcutaneously containing 2.5 mg/ml caerulein, which was administered at a dose of 50 mc/kg/hr. Six hours later a tail vein sample (50 microliters) was tested for serum lipase to verify an increase >3 fold basal.
Animals were sacrificed if they were moribund.

[4] = target: T2, pancreatic lysate lipase (Mus musculus, UniProt Q6P8U6); assay: Lipase activity assay with pancreatic lysate (commercial Pointe scientific lipase assay); assay type: biochemical
T2 construct: efficacy against mouse pancreatic lysates; other: summary of strengths of 767; efficacy as a solution when left overnight; other: solution left overnight; efficacy in the lipase activity assay compared with orlistat when fresh; other: fresh solution; IC50 of orlistat after overnight incubation (nearest tested concentration); other: after overnight incubation; improvement in stability and e
T2 sequence (Q6P8U6 17-465): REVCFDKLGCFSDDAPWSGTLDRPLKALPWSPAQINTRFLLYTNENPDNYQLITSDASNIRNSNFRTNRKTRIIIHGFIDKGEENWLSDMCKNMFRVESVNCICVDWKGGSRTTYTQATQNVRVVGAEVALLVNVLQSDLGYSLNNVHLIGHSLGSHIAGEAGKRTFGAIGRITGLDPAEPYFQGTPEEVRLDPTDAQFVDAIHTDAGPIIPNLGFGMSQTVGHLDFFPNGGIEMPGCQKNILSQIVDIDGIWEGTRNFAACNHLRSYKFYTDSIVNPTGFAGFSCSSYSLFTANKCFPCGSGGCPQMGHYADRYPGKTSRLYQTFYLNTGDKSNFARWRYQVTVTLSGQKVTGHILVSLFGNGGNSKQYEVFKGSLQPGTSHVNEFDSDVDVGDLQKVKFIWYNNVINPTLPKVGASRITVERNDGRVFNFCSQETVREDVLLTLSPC
Method: To test the efficacy of these compounds, the agents were dissolved as a 20 mM stock in ethanol, and further diluted to in PBS as a 600 micromolar working stock (3.3% ethanol). This was either used immediately or left at room temperature for 16-20 hours overnight before retesting efficacy. The agents were incubated with a pancreatic lysate in serial ⅓ dilutions spanning a range of 200 to 0.3 micromolars for 30 minutes. 5 microliters of these mixtures were then used to measure lipase activity using a commercial lipase assay (Pointe scientific) containing a monoacyl glycerol lipase in the reagent. The lipase assay was done using reagents in proportion to the recommended protocol. Values were depicted as % maximal lipase activity of the well without any inhibitor.

[5] = tested on: Mouse pancreatic acinar cells; assay: Toxicity study in pancreatic acinar cells (ATP levels, LDH leakage); assay type: cell-based; conditions: 4 hours, 20-200 micromolar range
Method: Toxicity studies of the relevant compounds were also performed using by diluting the original ethanol stock 200 mM into the incubation medium for acinar cells (HEPES buffer, pH 7.4, as described by Navina et al) 600 micromolar stock solutions of the compounds in 0.3% ethanol in PBS. These were added to acinar cells at ⅓ dilutions starting at 200 micromolar. Mouse pancreatic acinar ATP levels and LDH leakage were measured over 4 hours and compared to control. Any number positive over control indicates % injury greater than control acini.

[6] = target: T3, recombinant human pancreatic tri-acyl glycerol lipase [PNLIP; hPTL] (Homo sapiens, UniProt P16233); assay: FFA generation from glyceryl trilinoleate by recombinant hPNLIP with colipase; assay type: biochemical
T3 sequence (P16233 17-465): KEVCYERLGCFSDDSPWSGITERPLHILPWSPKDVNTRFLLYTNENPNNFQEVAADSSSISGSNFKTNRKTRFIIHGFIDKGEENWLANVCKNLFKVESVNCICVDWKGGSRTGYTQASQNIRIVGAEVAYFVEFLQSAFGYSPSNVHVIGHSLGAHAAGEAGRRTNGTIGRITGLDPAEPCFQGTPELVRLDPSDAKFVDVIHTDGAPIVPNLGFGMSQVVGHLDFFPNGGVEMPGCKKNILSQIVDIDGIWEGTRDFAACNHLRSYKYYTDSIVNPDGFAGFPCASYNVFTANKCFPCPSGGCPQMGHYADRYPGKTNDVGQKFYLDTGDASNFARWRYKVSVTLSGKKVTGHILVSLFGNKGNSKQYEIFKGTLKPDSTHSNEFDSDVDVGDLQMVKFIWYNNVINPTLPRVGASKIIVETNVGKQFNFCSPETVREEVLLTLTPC
T3 sequence (P04118 23-112 partner): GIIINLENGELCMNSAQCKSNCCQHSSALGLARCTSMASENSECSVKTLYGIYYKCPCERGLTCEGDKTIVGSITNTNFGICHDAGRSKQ
Method: as §2

[7] = tested on: Propionibacterium acnes (Strain VPI0389, ATCC); assay: Lipolysis / FFA generation by P. acnes culture; assay type: cell-based; conditions: broth FFA generation and spirit blue agar
Method: For medium, 2.0 g of Casein hydrolysate enzymatic digest (Cat #12855, Affymetrix Inc, Ohio, USA), 1.0 g of Yeast extract (Cat #61180-5000, Acros organics, New Jersey, USA) and 0.03 g of Victoria Blue B (Cat #sc-216055, Santa Crutz Biotechnology Inc, California, USA) were dissolved completely in 200 ml of double distilled water with mild heating. The mixed solution was sterilized by autoclaving at 15 lbs pressure (121° C.) for 15 min. The autoclaved solution allowed to cool down to 50° C., then 6 ml of emulsified lipase substrate slowly added with continuous stirring to get an even distribution and stored at 4° C. for P. acnes culture.
Lipase substrate preparation: Lipase substrate was prepared by mixing 200 μl of Tween 80 (Cat #P4780, Sigma, St louis, USA) in 100 ml of warm double distilled water and 25 ml of Cotton seeds oil (Cat #C0145, Spectrum chemical, California, USA). […]
A small part of lyophilized Propionibacterium acnes (Strain VPI0389, ATCC) was added to the medium and allowed to grow at 37° C. for 48 h in a BD GasPak EZ standard incubation container (Cat #260671, Beckton Dickinson, MD, USA) with two anaerobe Sachets (Cat #260683, Beckton Dickinson, MD, USA) which maintained the anaerobic condition within the container. After 48 h of culture, bacterial count was measured by turbidity (OD600 nm) method. […]

[8] = target: T4, carboxyester lipase (hCEL) (Homo sapiens, UniProt P19835); assay: FFA generation by recombinant hCEL; assay type: biochemical; conditions: % FFA generation; read-out: IC50 against hCEL
T4 sequence (P19835 21-753): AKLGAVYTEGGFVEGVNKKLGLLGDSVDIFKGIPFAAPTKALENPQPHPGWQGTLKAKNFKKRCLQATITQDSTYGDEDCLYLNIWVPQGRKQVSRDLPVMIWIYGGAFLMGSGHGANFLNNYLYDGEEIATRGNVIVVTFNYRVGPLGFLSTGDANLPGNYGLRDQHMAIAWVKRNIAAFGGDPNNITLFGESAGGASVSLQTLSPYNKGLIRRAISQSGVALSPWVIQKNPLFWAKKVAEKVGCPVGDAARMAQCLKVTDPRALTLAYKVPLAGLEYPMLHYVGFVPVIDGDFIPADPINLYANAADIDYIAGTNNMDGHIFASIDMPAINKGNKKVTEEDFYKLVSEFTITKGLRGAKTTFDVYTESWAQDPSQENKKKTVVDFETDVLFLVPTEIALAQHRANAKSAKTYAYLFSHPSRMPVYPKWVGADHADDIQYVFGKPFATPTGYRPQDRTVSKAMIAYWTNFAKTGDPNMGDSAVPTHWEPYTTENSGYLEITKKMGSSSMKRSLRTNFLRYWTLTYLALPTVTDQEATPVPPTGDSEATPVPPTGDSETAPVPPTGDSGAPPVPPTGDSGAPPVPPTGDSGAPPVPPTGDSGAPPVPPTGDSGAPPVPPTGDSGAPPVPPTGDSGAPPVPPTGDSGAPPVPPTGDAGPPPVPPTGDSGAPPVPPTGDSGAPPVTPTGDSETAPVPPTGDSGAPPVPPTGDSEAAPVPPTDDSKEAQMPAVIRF
Method: as §2, §1

CCCCCCCCCCC[C@@H](C[C@@H]1OC(=O)[C@H]1CC)OC(=O)[C@H](C)NC=O [Compound 767]
efficacy in reducing GTL induced acinar injury compared with orlistat ([1]; LDH leakage): more efficacious | toxicity compared with orlistat ([1]; acinar cells): less toxic | IC50 [2]: ≤ 2000 nM | 5 day survival [3]: 8/8 | PD (pulse distention, shock) [3]: 290±20 μm | UFAs [3]: 2.4 ± 0.4 mM | hypertriglyceridemia [3]: without the hypertriglyceridemia | leucopenia (mice affected) [3]: 0/8 | serum calcium [3]: 8.8 ± 1.0 mg/dL | temperature (hypothermia) [3]: 94.1±0.8 ° F. | BUN (peak) ([3]; caerulein pancreatitis): 18.5 ± 0.9 mg/dL | efficacy in the lipase activity assay compared with orlistat when fresh ([4]; fresh solution): equivalent efficacy | efficacy as a solution when left overnight ([4]; solution left overnight): significantly retained its efficacy | efficacy against mouse pancreatic lysates ([4]; summary of strengths of 767): higher efficacy | toxicity to acinar cells [5]: lower toxicity | IC50 against hPNLIP, fold lower than orlistat or 741 ([6]; in the presence of colipase (CLPS), 1 mM GTL substrate): 50 × | stability in aqueous solution ([6]; retention of inhibition after overnight storage): best stability; also recorded: better stability in aqueous media | IC50 ([6]; solution stored overnight, with colipase, read-out: IC50 against hPNLIP when stored overnight): < 2000 nM | potency against the most prevalent lipase (hPTL) ([6]; summary of strengths of 767): higher potency | lipolysis by P. acnes [7]: inhibited | IC50 [8]: ≤ 2000 nM
